# Where no end group is shown, it is not given here.
# Experiments:
# peritoneal macrophages = assay: qPCR of inflammatory genes in cultured peritoneal macrophages; type: cell-based, mice
# Procedure: Peritoneal macrophages were isolated after thioglycollate (3% solution in water) stimulation as described. Isolated macrophages were cultured in DMEM with 10% FBS for 48 hours with daily medium changes. Cells were then serum-starved overnight in DMEM with low FBS (0.5%) and then exposed to saline, PST (100 nM), or LPS (100 ng/ml) for 4 hours. At the end of incubation, the cultures were subjected to RNA extraction.
# (§1) RNA from tissues was extracted using a kit (RNeasy Plus, Qiagen, Valencia, Calif.). After DNase digestion, 200 ng of RNA was transcribed into cDNA in a 20-μl reaction using a High Capacity cDNA Archive kit and this cDNA was amplified. PCR (25-μl reactions) contained 5 μl of cDNA, 2×SYBR Green PCR Master Mix, and 400 nM of each primer. Differences in the threshold cycle number (ΔCt) between the target gene, the housekeeping gene Gapdh and the ribosomal protein gene 36B4 were used to calculate differences in expression. Primer sequences are provided below.
# As shown in FIGS. 18A-18H, PST promotes macrophage inflammation and chemotaxis. Peritoneal macrophages were isolated from WT-NCD and KO-NCD after thioglycollate injection. After 4-hr exposure to saline, LPS (100 ng/ml) or PST (100 nM), RNAs were extracted and cDNAs were prepared for qPCR analyses of Chga (FIG. 18A, n=8), iNos (FIG. 18B, n=8), Tnfα (FIG. 18C, n=8), Mcp-1 (FIG. 18D, n=8), IL-6 (FIG. 18E, n=8), IL-12p40 (FIG. 18F, n=8) and iNos genes (FIG. 18G, n=8). (FIG. 18H) Effects of PST on chemotaxis of activated macrophages from NCD-fed C57BL/6J mice (n=5). “*” Denotes comparison between the indicated groups. “*”: P<0.05, “**”: p<0.01, “***”: p<0.001.
# KO-DIO mice = assay: Hepatic gene expression in PST-treated KO-DIO mice; type: in vivo; conditions: PST 5 μg/g BW for 15 days
# Procedure: as §1
# To determine chronic effects, KO-NCD mice were treated with saline, PST (5 μg/g BW), PSTv1 (10 μg/g BW) or PST+PSTv1 for 15 days, fasted for 12 hrs after the last of injection and subjected to (FIG. 14C) GTT (2-way ANOVA: Treatment (Sal vs PST), Time, p<0.0001; Interaction, p<0.05; Treatment (PST vs PSTv1), p<0.0001; Time, p<0.0001; Interaction, p<0.01; n=7). The corresponding AUC is shown in (FIG. 14D). FIG. 14E reports liver glycogen at basal and during clamp in DIO mice (n=6). FIG. 14F reports chronic effects of PST (5 μg/g BW for 15 days) on expression of hepatic gluconeogenic genes (Pepck and G6pase) in DIO mice (n=6). FIG. 14G reports chronic effects of PST (5 μg/g BW for 15 days) on expression of hepatic lipid metabolic (Acc, Ppara, Cpt-1, Acox-1 and Srebp-1) genes in DIO mice (n=6). […]
# Chga-KO mice = assay: Body weight of Chga-KO mice on NCD; type: in vivo; conditions: PST administration for 2 weeks
# KO-NCD mice = assay: GTT in NCD-fed Chga-KO mice (acute and chronic); type: in vivo
# Procedure: For glucose tolerance tests (GTT), glucose (1 mg/g) was injected intraperitoneally (IP-GTT) (at time zero) or gavaged orally (O-GTT) after a 12-hours fast. Tail-vein glucose levels were measured at −30, 0, 15, 30, 60, 90, and 120 minutes. For insulin tolerance tests (ITT), insulin (0.4 mU/g) was injected intraperitoneally and blood glucose levels were measured at the indicated time points. Chronic PST (5 μg/g/day) and PSTv1 (10 μg/day) treatments were carried out for 15 days. For acute treatment, either peptides or saline were injected 30 minutes before glucose or insulin injection. Synergy Software Kaleidagraph Version 4.0 calculated the area under the curve (AUC) for each line curve.
# To determine acute effects, NCD fed Chga-KO mice (KO-NCD) were fasted for 12 hrs, treated with saline, PST (5 μg/g BW), PSTv1 (10 μg/g BW) or PST+PSTv1 for 30 min (−30 min) before injecting glucose (0 min) for (FIG. 14A) IP-GTT (2-way ANOVA: Treatment (Sal vs PST), p<0.0001, Time, p<0.0001; Interaction, p<0.002; Treatment (PST vs PSTv1), p<0.0001; Time, p<0.0001; Interaction, p<0.005; n=7). The corresponding AUC is shown in (FIG. 14B). […]
# 3T3-L1 adipocytes = assay: Insulin-stimulated glucose uptake in adipocytes; type: cell-based; conditions: 3T3-L1 adipocytes in culture; without any PST variant present
# From the text: Mutant PST peptides were synthesized and screened. The peptides were synthesized as various deletion peptides of PST. Native PST (SEQ ID NO. 2) inhibited insulin-stimulated glucose uptake and leptin production in adipocytes. The inventors tested various deletion mutant PST peptides whether one or more of them would compete and prevent native PST action in adipocytes.
# [1] = PST 100 nM, 4 hr, Chga-KO macrophages
substance,measurement,setting,value
"PEGKGEQEHSQQKEEEEEMAVVPQGLFRG-amide (PEGKGEQEHSQQKEEEEEMAVVPQGLFRG-NH2) [PST, Wild-type human pancreastatin, a chromogranin A derived peptide]","expression of IL-6, IL-12p40 and iNos genes",peritoneal macrophages; [1],had no effect
same,expression of Tnfα and Mcp-1,peritoneal macrophages; [1],increased
same,"expression of Tnfα, Mcp-1, IL-6, IL-12p40 and iNos",peritoneal macrophages; macrophage cultures from WT and Chga-KO mice on NCD,increased
same,lower mRNA levels of Pepck and G6pase in KO-DIO liver,KO-DIO mice,reversed
same,expression of Acox-1 and Cpt-1,KO-DIO mice; liver,increased
same,body weight,Chga-KO mice,did not change
same,blood glucose after acute PST treatment,"KO-NCD mice; acute, Chga-KO mice on normal chow diet",induces hyperglycemia
same,insulin sensitivity (GTT),"KO-NCD mice; chronic PST 5 μg/g BW for 15 days, Chga-KO mice on NCD",induced insulin resistance
same,inhibition of insulin-stimulated glucose uptake,3T3-L1 adipocytes,35%

# Source: patent US20170209544A1, “A PEPTIDE THERAPY TO COUNTERACT INSULIN RESISTANCE AND TYPE 2 DIABETES” (The Regents of the University of California, priority 2014, published 2017)
